Where a SMILES comes first, the peptide text is derived from it. [ ]: non-standard residue; d: D form. ξ: configuration not given here. ξαMeBip(2'-Et,4'-OMe) = CCc1cc(OC)ccc1-c1ccc(CC(C)(N)C(=O)O)cc1; ξαMePhe(2,6-F2) = CC(N)(Cc1c(F)cccc1F)C(=O)O; ξhhPhe = NC(CCCc1ccccc1)C(=O)O; ξαMeD = CC(N)(CC(=O)O)C(=O)O; ξαMeP = CC1(C(=O)O)CCCN1; ξαMeS = CC(N)(CO)C(=O)O; Aib = CC(C)(N)C(=O)O
How the values were obtained:
[1] = test system: RIN5F (Rat Insulinoma) cells; experiment: In vitro glucose-dependent insulin secretion (RIN5F cell assay); type: cell-based; settings: 16.7-mM glucose load, n = 3, mean ± S.D.
Procedure: RIN5F (Rat Insulinoma) cells were cultured in RPMI 1640 medium supplemented with sodium pyruvate (1 mM) HEPES and Glucose (4.5 g/L) in a humidified incubator (5% CO2), at 37° C. After trypsinization, RIN5F cells were seeded at a concentration of 0.2×10^6 cells per well, in 12 well plates. The cells were grown overnight to 80% confluence and insulin secretion experiments were performed as follows (Montrose-Rafizadeh C., et al., Mol. Cell. Endo. 1997, 130, 109.; Wang, X., et al., Endocrinology 2001, 5, 1820).
The cells were washed once with PBS solution followed by 40 min. incubation in fresh Krebs-Ringer Balanced Buffer containing NaCl (115 mmol/L), KCl (4.7 mmol/L), CaCl2 (1.28 mmol/L), MgSO4.7H2O (1.2 mmol/L), KH2PO4 (1.2 mmol/L), NaHCO3 (10 mmol/L) and HEPES (25 mmol/L), containing Glucose (1.1 mM) and B.S.A (0.5%), pH 7.4. The buffer was replaced after 40 min. and the cells were incubated (37° C.) with the test peptidomimetics, at different concentration, for 30 min., both in the presence (16.7 mM) and absence (0 mM) of glucose load. The supernatant was collected and the insulin amount was measured by ultra sensitive Rat insulin ELISA kit (Crystal Chem, IL). The protein was estimated in the supernatant using Bicinchoninic Acid kit, according to the manufacturer's protocol (Sigma Aldrich, MO). The total insulin content obtained in Pico-gram (pg) was divided with the total protein (μg) in order to normalize for differences in cell density between wells.

DPP IV enzyme = DPP IV enzyme (Homo sapiens, UniProt P27487); experiment: Stability against DPP IV enzyme; type: in vitro ADME; settings: 2 μM, 37° C.; for half-life: read-out: half-life (t1/2) with DPP-IV enzyme
Procedure: (§1) Different peptidomimetics (final concentration 2 μM) were incubated with either DPP IV (1:25 mU) or pooled human plasma (7.5 μL) or simulated gastric fluid (pH 1.5; composition HCl, NaCl and Pepsin) or simulated intestinal fluid (pH 7.5) or human liver microsomes, for 0, 2, 4, 6, 12 and 24 h (37° C.; 50 mM triethanolamine-HCl buffer; pH 7.8). […] Reactions were terminated by the addition of TFA/H2O ([…], 10% (v/v)). The reaction products were then applied to a Vydac C18 analytical column (4.6×250-mm) and the major degradation fragment separated from intact peptidomimetic. The column was equilibrated with TFA/H20, at a flow rate of 1 mL/min. Using 0.1% (v/v) TFA in 70% acetonitrile/H2O, the concentration of acetonitrile in the eluting solvent was raised from 0% to 28% over 10 min and from 28% to 42% over 30 min. The absorbance was monitored at 206 nm using UV detector and peaks were collected manually prior to ESI-MS analysis. Area under the curve was measured for test peptidomimetics and their metabolites and percentage degradation were calculated at each time point over a period of 24 h.

[2] = Stability in human plasma; type: in vitro ADME; settings: 2 μM, 37° C.; for half-life: human, plasma, read-out: half-life (t1/2) in human plasma
Procedure: as §1

[3] = Stability in simulated gastric fluid; type: in vitro ADME; settings: 2 μM, 37° C.; for half-life (t1/2) in simulated gastric fluid / half-life: pH 1.5; for % degradation in 24 h when incubated with simulated gastric fluid: pH 1.5, 24 h; for half-life: simulated gi fluid, read-out: half-life (t1/2) in simulated gastric fluid
Procedure: (§2) Reactions were terminated by the addition of TFA/H2O ([…], 10% (v/v)). […] The column was equilibrated with TFA/H20, at a flow rate of 1 mL/min. […] The absorbance was monitored at 206 nm using UV detector and peaks were collected manually prior to ESI-MS analysis.

[4] = Stability in simulated intestinal fluid; type: in vitro ADME; settings: 2 μM, 37° C.; for half-life (t1/2) in simulated intestinal fluid / half-life: pH 7.5; for % degradation in 24 h when incubated with simulated intestinal fluid: pH 7.5, 24 h; for half-life: simulated gi fluid, read-out: half-life (t1/2) in simulated intestinal fluid
Procedure: as §2

[5] = Stability in liver microsomes; type: in vitro ADME, human; settings: 2 μM, 37° C.; for half-life: human, microsomes, read-out: half-life (t1/2) in liver microsomes
Procedure: as §2

DPP IV enzyme, sequence (P27487 whole entry, species assumed, the tested form may be a part): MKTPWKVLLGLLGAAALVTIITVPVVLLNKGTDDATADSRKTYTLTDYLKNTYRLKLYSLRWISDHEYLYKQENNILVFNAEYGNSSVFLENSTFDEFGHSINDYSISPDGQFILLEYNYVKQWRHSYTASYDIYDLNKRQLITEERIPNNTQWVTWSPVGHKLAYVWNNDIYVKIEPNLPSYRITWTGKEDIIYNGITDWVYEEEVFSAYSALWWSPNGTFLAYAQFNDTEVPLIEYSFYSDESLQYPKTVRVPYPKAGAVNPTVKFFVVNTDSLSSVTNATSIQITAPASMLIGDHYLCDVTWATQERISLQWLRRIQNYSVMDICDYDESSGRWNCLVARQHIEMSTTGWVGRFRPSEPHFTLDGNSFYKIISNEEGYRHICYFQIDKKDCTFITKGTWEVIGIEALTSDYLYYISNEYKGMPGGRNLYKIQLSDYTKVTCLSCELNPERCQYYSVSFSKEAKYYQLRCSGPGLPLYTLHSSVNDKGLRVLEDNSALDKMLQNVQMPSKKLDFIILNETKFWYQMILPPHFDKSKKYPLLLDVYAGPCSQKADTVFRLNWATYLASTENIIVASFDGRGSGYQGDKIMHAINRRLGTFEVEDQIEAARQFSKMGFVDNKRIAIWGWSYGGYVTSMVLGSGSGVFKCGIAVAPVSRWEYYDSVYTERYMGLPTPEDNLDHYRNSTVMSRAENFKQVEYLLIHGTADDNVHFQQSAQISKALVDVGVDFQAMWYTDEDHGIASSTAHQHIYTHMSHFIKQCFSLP

% degradation in 24 h when incubated with DPP-IV enzyme (DPP IV enzyme) [%]	half-life (DPP IV enzyme) [h]	% degradation in 24 h when incubated with human plasma [2] [%]	half-life [2] [h]	half-life (t1/2) in simulated gastric fluid [3]	% degradation in 24 h when incubated with simulated gastric fluid [3] [%]	half-life (t1/2) in simulated intestinal fluid [4]	% degradation in 24 h when incubated with simulated intestinal fluid [4] [%]	% degradation in 24 h when incubated with liver microsomes [5] [%]	half-life [5] [h]	half-life [3] [h]	half-life [4] [h]	half-life (t1/2) in liver microsomes [5]	half-life (t1/2) in human plasma [2]	SMILES	Insulin secretion ([1]; 0.1 nM test compd.) [pg/µg/h]	Insulin secretion ([1]; 1 nM test compd.) [pg/µg/h]	Insulin secretion ([1]; 10 nM test compd.) [pg/µg/h]
70	9	71	8	(8) h	14	(6) h	40	78	1					CCc1cc(OC)ccc1-c1ccc(CC(C)(NC(=O)[C@H](CC(=O)O)NC(=O)[C@H](CO)NC(=O)[C@@H](NC(=O)C(C)(Cc2c(F)cccc2F)NC(=O)[C@@H](NC(=O)CNC(=O)[C@H](CCC(N)=O)NC(=O)C2(C)CCCN2C(=O)[C@H](Cc2c[nH]cn2)NC(=O)[C@@H](N)C(C)C)[C@@H](C)O)[C@@H](C)O)C(=O)NC(CCCc2ccccc2)C(N)=O)cc1 (some centres unmarked) [compound 28] (H-VH[ξαMeP]QGT[ξαMePhe(2,6-F2)]TSD[ξαMeBip(2'-Et,4'-OMe)][ξhhPhe]-NH2)	11.8 ± 0.50	14.9 ± 0.11	27.9 ± 0.31
86	9	70	8	(8) h	15	(6) h	41	77	1					CCc1cc(OC)ccc1-c1ccc(CC(C)(NC(=O)[C@H](CC(=O)O)NC(=O)[C@H](CO)NC(=O)[C@@H](NC(=O)C(C)(Cc2c(F)cccc2F)NC(=O)[C@@H](NC(=O)CNC(=O)[C@H](CCC(=O)O)NC(=O)C(C)(C)NC(=O)[C@H](Cc2c[nH]cn2)NC(=O)[C@@H](N)C(C)C)[C@@H](C)O)[C@@H](C)O)C(=O)NC(CCCc2ccccc2)C(N)=O)cc1 (some centres unmarked) [compound 31] (H-VH[Aib]EGT[ξαMePhe(2,6-F2)]TSD[ξαMeBip(2'-Et,4'-OMe)][ξhhPhe]-NH2)	12.7 ± 0.21	15.8 ± 0.33	29.3 ± 0.19
00	> 24	00	> 24		00		00	31		> 24	> 24	(5) h		CCc1cc(OC)ccc1-c1ccc(CC(C)(NC(=O)[C@H](CC(=O)O)NC(=O)C(C)(CO)NC(=O)[C@@H](NC(=O)[C@H](Cc2ccccc2)NC(=O)[C@@H](NC(=O)CNC(=O)[C@H](CCC(=O)O)NC(=O)[C@H](C)NC(=O)[C@H](Cc2c[nH]cn2)NC(=O)[C@@H](N)C(C)C)[C@@H](C)O)[C@@H](C)O)C(=O)NC(CCCc2ccccc2)C(N)=O)cc1 (some centres unmarked) [compound 38] (H-VHAEGTFT[ξαMeS]D[ξαMeBip(2'-Et,4'-OMe)][ξhhPhe]-NH2)	13.1 ± 0.11	14.9 ± 0.17	28.8 ± 0.44
75		77			100		100	100	0.5	0.5	0.5		(9) h	CCc1cc(OC)ccc1-c1ccc(CC(C)(NC(=O)[C@H](CC(=O)O)NC(=O)C(C)(CO)NC(=O)[C@@H](NC(=O)C(C)(Cc2c(F)cccc2F)NC(=O)[C@@H](NC(=O)CNC(=O)[C@H](CCC(N)=O)NC(=O)[C@H](C)NC(=O)[C@H](Cc2c[nH]cn2)NC(=O)[C@@H](N)C(C)C)[C@@H](C)O)[C@@H](C)O)C(=O)NC(CCCc2ccccc2)C(N)=O)cc1 (some centres unmarked) [compound 50] (H-VHAQGT[ξαMePhe(2,6-F2)]T[ξαMeS]D[ξαMeBip(2'-Et,4'-OMe)][ξhhPhe]-NH2)	12.9 ± 0.14	15.8 ± 0.13	29.9 ± 0.15
71	8	69	8		11	(6) h	43	77	2	7				CCc1cc(OC)ccc1-c1ccc(CC(C)(NC(=O)C(C)(CC(=O)O)NC(=O)[C@H](CO)NC(=O)[C@@H](NC(=O)[C@H](Cc2ccccc2)NC(=O)[C@@H](NC(=O)CNC(=O)[C@H](CCC(N)=O)NC(=O)[C@H](C)NC(=O)[C@H](Cc2c[nH]cn2)NC(=O)[C@@H](N)C(C)C)[C@@H](C)O)[C@@H](C)O)C(=O)NC(CCCc2ccccc2)C(N)=O)cc1 (some centres unmarked) [compound 58] (H-VHAQGTFTS[ξαMeD][ξαMeBip(2'-Et,4'-OMe)][ξhhPhe]-NH2)	16.1 ± 0.22	22.1 ± 0.26	36.0 ± 0.36
00	> 24	00	> 24		00		00	35		> 24	> 24	(5) h		CCc1cc(OC)ccc1-c1ccc(CC(C)(NC(=O)C(C)(CC(=O)O)NC(=O)[C@H](CO)NC(=O)[C@@H](NC(=O)[C@H](Cc2ccccc2)NC(=O)[C@@H](NC(=O)CNC(=O)[C@H](CCC(=O)O)NC(=O)[C@H](C)NC(=O)[C@H](Cc2c[nH]cn2)NC(=O)[C@@H](N)C(C)C)[C@@H](C)O)[C@@H](C)O)C(=O)NC(CCCc2ccccc2)C(N)=O)cc1 (some centres unmarked) [compound 62] (H-VHAEGTFTS[ξαMeD][ξαMeBip(2'-Et,4'-OMe)][ξhhPhe]-NH2)	16.6 ± 0.41	22.9 ± 0.32	36.7 ± 0.11
